Assay results as given in patent US20230250182A1, “METHODS FOR TREATING CANCER OR VON-HIPPEL LINDAU DISEASE USING A COMBINATION OF A PD-1 ANTAGONIST, A HIF-2 ALPHA INHIBITOR, AND LENVATINIB OR A PHARMACEUTICALLY ACCEPTABLE SALT THEREOF” (Merck Sharp & Dohme LLC, priority 2020, published 2023).

Columns and labels:
KPC-2838c3 cells = experiment: VHL proficient mouse syngeneic pancreatic tumor model; type: in vivo, C57BL/6J mice; conditions: for Final CRs (complete tumor regressions) / Final PRs (partial tumor regressions): 10 mice per group; for Final CRs (complete tumor regressions): CR = no observable tumor; for Final PRs (partial tumor regressions): PR = tumor volume lower than original size when treatment began; for TGI (tumor growth inhibition): Day 24, MK-6482 3 mg/kg BID oral, lenvatinib 10 mg/kg QD oral, anti-PD-1 10 mg/kg i.p. every 5 days
Text: Prior to treatment initiation, female C57BL/6J mice aged 7 weeks weighing between 18 to 21 grams were anesthetized and injected into the rear flank with 0.5×10^6 log-phase sub-confluent KPC-2838c3 cells. Ten (10) days later when the mean tumor volume of inoculated animals reached approximately 95 mm^3, mice were pair-matched into 8 treatment groups consisting of 10 mice per group. Treatment groups consisted of: 1) 0.5% methylcellulose (Vehicle)+Isotype mouse IgG1 antibody (mIgG1); 2) MK-6482+mIgG1; 3) Lenvatinib+mIgG1; 4) Vehicle+anti-mouse PD-1 IgG1 antibody; 5) MK-6482+anti-PD-1; 6) Lenvatinib+anti-PD-1; 7) MK-6482+Lenvatinib; 8) MK-6482+Lenvatinib+anti-PD-1. Vehicle and MK-6482 were orally gavage-dosed twice daily (BID) at 3 mg/kg body weight. Lenvatinib was orally dosed once daily (QD) at 10 mg/kg body weight. Isotype control, a mouse monoclonal antibody specific for adenoviral hexon of the isotype IgG1, and anti-PD-1 antibodies were dosed intraperitoneally every 5 days at 10 mg/kg body weight. Start of treatments was considered Day 0 and dosing based on schedules continued as described until Day 45. Caliper measurements of tumors and body weights were captured twice weekly. Statistical analyses were performed by one-way ANOVA with Tukey multiple comparison tests at the timepoints specified when treatment groups reached endpoints.
CRs were defined as no observable tumor whereas PRs were tumors whose volume was lower than the original tumor size when treatment began. There was no significant body weight loss or adverse events observed in any animals treated with the above therapies, indicating the treatments were well tolerated.

[1] = Phase 1 cross-over food-effect PK study of single dose MK-6482 in healthy volunteers; type: in vivo, human; conditions: single dose of 120 mg, healthy female adult volunteers
[2] = FIH Phase 1 study of tolerability, safety, PK and PD of MK-6482 in participants with advanced solid tumors; type: in vivo, human
Method: As of 6 Sep. […] 52 additional participants with advanced RCC were treated in an expansion cohort (Part 1B) at the clinical dose of 120 mg QD.

[3] = Phase 2 open-label efficacy and safety study in VHL disease associated RCC; type: in vivo, human; conditions: 120 mg QD, 61 participants with VHL disease associated RCC
Text: A Phase 2, open-label efficacy and safety study in participants with VHL disease associated RCC is ongoing. As of 6 Sep.

[4] = combined dose escalation and expansion cohorts
[5] = dose escalation (Part 1A) 20 to 240 mg QD and 120 mg BID

Structure (SMILES) | Final CRs (complete tumor regressions) (KPC-2838c3 cells) | Final PRs (partial tumor regressions) (KPC-2838c3 cells) | TGI (tumor growth inhibition) (KPC-2838c3 cells) [%] | delay of time to peak MK-6482 exposure, median difference (Fed-Fasted) [1] [h] | most common adverse event (AE) reported: headache [1] [%] | effect of high fat, high calorie meal on extent of MK-6482 exposure ([1]; fed vs fasted) | lowering of maximum plasma MK-6482 concentration by high fat, high calorie meal ([1]; fed vs fasted) | Grade 3 event of hypoxia (DLT) ([2]; 120 mg BID cohort) | accumulation from Day 1 to Day 15 ([2]; 120 mg QD expansion cohort (Part 1B)) [fold] | Cmax ([2]; 120 mg QD expansion cohort (Part 1B), Day 15, read-out: mean steady state Cmax) [µM] | Grade 4 event of thrombocytopenia (DLT) ([2]; 240 mg QD cohort) | most common AEs (occurring in ≥20% of participants) [2, 4] | most common Grade 3 AEs (in ≥5% of participants) [2, 4] | MTD [2, 5] | treatment-related DLTs observed [2, 5] | Vd/F ([2]; human, in vivo) [L] | estimated CL/F ([2]; human, in vivo) [L/h] | Tmax ([2]; human, in vivo, participants with advanced solid tumors, oral, read-out: median tmax) [h] | exposure versus dose ([2]; participants with advanced solid tumors) | most common AE of ≥Grade 3 toxicity (reported by ≥5% of participants) [3]
COc1cc2nccc(Oc3ccc(NC(=O)NC4CC4)c(Cl)c3)c2cc1C(N)=O [Lenvatinib, 4-[3-chloro-4-(cyclopropylaminocarbonyl)aminophenoxy]-7-methoxy-6-quinolinecarboxamide] | 0/10 PRs, 0/10 CRs | 0/10 PRs, 0/10 CRs | 90 | – | – | – | – | – | – | – | – | – | – | – | – | – | – | – | – | –
CS(=O)(=O)c1ccc(Oc2cc(F)cc(C#N)c2)c2c1[C@H](O)[C@H](F)[C@@H]2F [MK-6482, 3-[(1S,2S,3R)-2,3-difluoro-1-hydroxy-7-methylsulfonyl-indan-4-yl]oxy-5-fluoro-benzonitrile] | 0/10 PRs, 0/10 CRs | 0/10 PRs, 0/10 CRs | 16 | 2 | 12.5 | did not affect | approximately 35% | 1 | 1.5 | 4.67 | 1 | anemia, fatigue, dyspnea, nausea, and peripheral edema | anemia and hypoxia | not reached | 2 | 106 to 266 | 5.22 to 14.4 | 1 to 2.8 | exposure increased with dose | Fatigue
